In experiment [1] the target is T1, Coagulation factor XII (Homo sapiens, UniProt P00748).
T1 sequence (P00748 whole entry): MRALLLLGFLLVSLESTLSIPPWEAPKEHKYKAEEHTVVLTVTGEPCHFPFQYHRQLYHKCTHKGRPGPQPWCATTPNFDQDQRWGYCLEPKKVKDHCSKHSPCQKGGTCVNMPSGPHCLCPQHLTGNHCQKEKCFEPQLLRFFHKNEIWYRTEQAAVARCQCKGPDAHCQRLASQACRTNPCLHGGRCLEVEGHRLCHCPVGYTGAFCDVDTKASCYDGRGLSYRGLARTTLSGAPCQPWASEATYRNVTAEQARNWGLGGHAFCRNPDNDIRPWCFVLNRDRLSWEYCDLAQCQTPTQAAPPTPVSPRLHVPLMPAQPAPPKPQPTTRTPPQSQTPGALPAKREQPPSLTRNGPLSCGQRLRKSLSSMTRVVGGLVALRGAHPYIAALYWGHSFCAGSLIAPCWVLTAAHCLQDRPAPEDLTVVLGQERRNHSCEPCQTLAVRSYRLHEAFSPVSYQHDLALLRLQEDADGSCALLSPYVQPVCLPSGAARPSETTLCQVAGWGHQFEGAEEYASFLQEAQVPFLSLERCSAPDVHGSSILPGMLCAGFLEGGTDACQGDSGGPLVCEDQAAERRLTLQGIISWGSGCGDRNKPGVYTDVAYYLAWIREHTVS
Put plainly: FXIIa inhibitor potency, concentration-response, biochemical (AID 716). Type of experiment: functional.

The nature of experiment [2]: growth suppression of PTEN-null colon cells, dose response, cell-based, HCT116 PTEN knockout (AID 1047).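 Note: HCT116 colon tumor cells with PTEN knocked out; cells exposed to compound for 60 hours before readout; potency for loss of cell viability measured by luminescence.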 Type of experiment: functional.
Experiment [3] deals with Alkaline phosphatase, placental type (Homo sapiens, UniProt P05187). The experiment can be described thus: PLAP enzyme inhibitors, confirmation, biochemical, luminescence (AID 1512). Type of experiment: functional.
Experiment [4] in a line: growth suppression of beta-catenin-knockout colon cells, dose response, cell-based, HCT116, human colon tumor (AID 1045).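 Note: HCT116 colon tumor cells with beta catenin knocked out; cells exposed to compound for 60 hours.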 Type of experiment: functional.
Experiment [5] addresses T2, Alkaline phosphatase, tissue-nonspecific isozyme (Homo sapiens, UniProt P05186).
T2 sequence (P05186 whole entry): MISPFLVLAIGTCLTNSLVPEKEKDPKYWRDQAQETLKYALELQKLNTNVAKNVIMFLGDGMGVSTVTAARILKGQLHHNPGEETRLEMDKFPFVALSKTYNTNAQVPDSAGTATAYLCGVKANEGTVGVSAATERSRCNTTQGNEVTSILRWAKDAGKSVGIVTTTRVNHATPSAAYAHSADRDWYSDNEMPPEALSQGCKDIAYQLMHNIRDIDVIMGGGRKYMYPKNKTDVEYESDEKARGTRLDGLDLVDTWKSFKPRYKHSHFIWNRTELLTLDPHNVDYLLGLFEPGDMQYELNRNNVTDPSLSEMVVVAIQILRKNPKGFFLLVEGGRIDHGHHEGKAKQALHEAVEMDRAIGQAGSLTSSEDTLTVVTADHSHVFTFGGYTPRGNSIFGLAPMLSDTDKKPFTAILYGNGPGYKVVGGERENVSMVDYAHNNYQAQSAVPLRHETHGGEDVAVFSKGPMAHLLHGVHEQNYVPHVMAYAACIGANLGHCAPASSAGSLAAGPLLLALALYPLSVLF
The experiment can be described thus: human TNAP enzyme inhibitors, SAR follow-up, biochemical, luminescent, dose response (AID 1056).

For experiment [6], the target named is T3, Kappa-type opioid receptor (Homo sapiens, UniProt P41145). Put plainly: SAR analysis of small molecule antagonists of the kappa opioid receptor via a luminescent beta-arrestin assay - Set 3. [Related pubchem assays (depositor defined):AID1777, AID1778, AID1785, AID1786, AID1966, AID2133, AID2136, AID2285, AID2495]. In kind it is functional.
Experiment [7] addresses T3, Kappa-type opioid receptor. The experiment can be described thus: SAR analysis of Antagonists of the Kappa Opioid Receptor (KOR) using an Image-Based Assay - Set 3. [Related pubchem assays (depositor defined):AID1777, AID1785]. Type of experiment: functional.
The target of experiment [8] is Mu-type opioid receptor (Homo sapiens, UniProt P35372). The experiment can be described thus: SAR Analysis of Antagonists of the MOR Receptor using an Image-Based Assay - Set 3. [Related pubchem assays (depositor defined):AID1777, AID1785, AID1786, AID1966, AID2133, AID2136, AID2284, AID2285, AID2420]. Type of experiment: functional.
Experiment [9] addresses Delta-type opioid receptor (Homo sapiens, UniProt P41143). The experiment can be described thus: SAR Analysis of Antagonists of the DOR Receptor using an Image-Based Assay - Set 3. [Related pubchem assays (depositor defined):AID1777, AID1785]. In kind it is functional.
Experiment [10] has as its target Insulin-degrading enzyme (Homo sapiens, UniProt P14735). The experiment can be described thus: Dose Response: Fluorescence polarization-based cell-based high throughput dose response assay for inhibitors of insulin-degrading enzyme (IDE). [Related pubchem assays: 434962 (Primary screen (IDE inhibitors in singlicate)), 449730 (Counterscreen (Cytotoxicity in triplicate)), 435028 (Confirmation (IDE inhibitors in triplicate)), 434984 (Summary …. In kind it is functional. (Fluorescence polarisation rises when a labelled molecule tumbles more slowly, as on binding a larger partner.)

In experiment [11] the target is Perilipin-1/ABHD5 (Homo sapiens, UniProt O60240+Q8WTS1). The experiment can be described thus: Luminescence-based biochemical high throughput dose response assay for inhibitors of the interaction of the lipase co-activator protein, abhydrolase domain containing 5 (ABHD5) with perilipin-1 (PLIN1) (2K validation set). [Related pubchem assays (depositor defined):AID493027, AID493057].

The target of experiment [12] is 1-acylglycerol-3-phosphate O-acyltransferase ABHD5/Perilipin-5 (Homo sapiens, UniProt Q00G26+Q8WTS1). The experiment can be described thus: Luminescence-based biochemical high throughput dose response assay for inhibitors of the interaction of the lipase co-activator protein, abhydrolase domain containing 5 (ABHD5) with perilipin-5 (MLDP; PLIN5) (2K validation set). [Related pubchem assays (depositor defined):AID493035, AID493241].

Experiment [13] can be described thus: Counterscreen for IDE inhibitors: Luminescence-based cell-based high throughput dose response assay to identify compounds that are cytotoxic to HEK cells. [Related pubchem assays: 434962 (Primary screen (IDE inhibitors in singlicate)), 449730 (Counterscreen (Cytotoxicity in triplicate)), 435028 (Confirmation (IDE inhibitors in triplicate)) …. In kind it is functional. As to conditions: HEK293.

The target of experiment [14] is T4, Zinc finger protein mex-5 (Caenorhabditis elegans, UniProt Q9XUB2).
T4 sequence (Q9XUB2 whole entry): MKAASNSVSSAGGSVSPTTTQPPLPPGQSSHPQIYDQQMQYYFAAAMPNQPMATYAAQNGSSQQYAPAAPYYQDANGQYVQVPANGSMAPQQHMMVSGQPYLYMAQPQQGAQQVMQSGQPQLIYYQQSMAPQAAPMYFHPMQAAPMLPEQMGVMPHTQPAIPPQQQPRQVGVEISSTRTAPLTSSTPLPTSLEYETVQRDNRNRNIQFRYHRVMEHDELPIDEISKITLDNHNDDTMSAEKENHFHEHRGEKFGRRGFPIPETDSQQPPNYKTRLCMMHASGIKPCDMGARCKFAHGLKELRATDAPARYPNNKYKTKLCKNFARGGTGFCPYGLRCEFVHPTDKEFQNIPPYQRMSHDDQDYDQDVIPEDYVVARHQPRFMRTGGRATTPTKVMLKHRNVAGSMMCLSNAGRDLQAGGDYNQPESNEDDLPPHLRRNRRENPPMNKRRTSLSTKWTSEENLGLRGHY
Put plainly: MEX-5/TCR-2 RNA interaction inhibitors, dose response, biochemical, C. elegans, fluorescence polarization (AID 1960).

Experiment [15] deals with T5, RNA-binding protein pos-1 (Caenorhabditis elegans, UniProt G5EF15).
T5 sequence (G5EF15 whole entry): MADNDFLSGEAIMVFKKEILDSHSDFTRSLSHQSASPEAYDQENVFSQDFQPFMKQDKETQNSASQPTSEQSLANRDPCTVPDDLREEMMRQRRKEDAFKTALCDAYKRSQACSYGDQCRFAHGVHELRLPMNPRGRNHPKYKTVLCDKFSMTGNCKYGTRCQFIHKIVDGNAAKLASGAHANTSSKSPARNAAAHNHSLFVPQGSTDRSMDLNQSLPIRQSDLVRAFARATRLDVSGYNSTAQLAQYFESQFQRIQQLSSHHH
The experiment can be described thus: inhibitors of POS-1/mex-3 RNA binding, dose response, biochemical, fluorescence polarization (AID 1964).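 Note: purified POS-1 fused to maltose binding protein made in E. coli; potency of compounds blocking POS-1 binding to fluorescent RNA.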

Activity calls are given as the source filed them.

T3 sequence (P41145 whole entry): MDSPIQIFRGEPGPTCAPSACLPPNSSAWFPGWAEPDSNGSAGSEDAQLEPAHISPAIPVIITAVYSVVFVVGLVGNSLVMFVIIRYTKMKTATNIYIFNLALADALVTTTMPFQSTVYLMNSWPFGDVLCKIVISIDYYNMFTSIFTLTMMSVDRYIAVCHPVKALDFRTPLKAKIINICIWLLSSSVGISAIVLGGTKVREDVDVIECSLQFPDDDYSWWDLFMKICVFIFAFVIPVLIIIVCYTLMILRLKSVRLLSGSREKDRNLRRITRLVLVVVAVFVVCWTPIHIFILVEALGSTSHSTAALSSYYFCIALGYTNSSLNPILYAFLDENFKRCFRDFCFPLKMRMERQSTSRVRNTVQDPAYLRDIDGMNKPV
Sequence of 1-acylglycerol-3-phosphate O-acyltransferase ABHD5/Perilipin-5 (Q00G26 whole entry, the tested form may be a part): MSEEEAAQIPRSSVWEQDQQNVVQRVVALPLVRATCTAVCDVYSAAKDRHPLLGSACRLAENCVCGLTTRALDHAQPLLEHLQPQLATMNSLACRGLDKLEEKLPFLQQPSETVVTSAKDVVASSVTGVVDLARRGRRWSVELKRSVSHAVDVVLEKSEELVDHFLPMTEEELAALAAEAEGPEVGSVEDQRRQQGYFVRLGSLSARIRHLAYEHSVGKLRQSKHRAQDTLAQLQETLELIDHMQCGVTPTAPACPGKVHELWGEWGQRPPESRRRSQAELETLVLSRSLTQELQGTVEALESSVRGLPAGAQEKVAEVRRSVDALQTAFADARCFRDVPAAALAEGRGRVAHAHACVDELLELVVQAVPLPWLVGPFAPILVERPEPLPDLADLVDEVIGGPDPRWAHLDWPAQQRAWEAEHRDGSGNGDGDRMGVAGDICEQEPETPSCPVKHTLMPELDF
Sequence of 1-acylglycerol-3-phosphate O-acyltransferase ABHD5/Perilipin-5 (Q8WTS1 whole entry, the tested form may be a part): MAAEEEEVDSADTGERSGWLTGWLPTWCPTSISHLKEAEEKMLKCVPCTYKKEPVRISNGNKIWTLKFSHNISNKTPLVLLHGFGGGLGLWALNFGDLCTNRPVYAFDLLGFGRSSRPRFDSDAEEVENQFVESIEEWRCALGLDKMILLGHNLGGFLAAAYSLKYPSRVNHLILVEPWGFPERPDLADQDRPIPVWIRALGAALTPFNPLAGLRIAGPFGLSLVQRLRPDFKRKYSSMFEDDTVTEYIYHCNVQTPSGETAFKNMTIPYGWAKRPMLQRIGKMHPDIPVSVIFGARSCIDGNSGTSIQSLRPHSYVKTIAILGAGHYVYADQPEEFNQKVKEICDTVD
Sequence of Mu-type opioid receptor (P35372 whole entry): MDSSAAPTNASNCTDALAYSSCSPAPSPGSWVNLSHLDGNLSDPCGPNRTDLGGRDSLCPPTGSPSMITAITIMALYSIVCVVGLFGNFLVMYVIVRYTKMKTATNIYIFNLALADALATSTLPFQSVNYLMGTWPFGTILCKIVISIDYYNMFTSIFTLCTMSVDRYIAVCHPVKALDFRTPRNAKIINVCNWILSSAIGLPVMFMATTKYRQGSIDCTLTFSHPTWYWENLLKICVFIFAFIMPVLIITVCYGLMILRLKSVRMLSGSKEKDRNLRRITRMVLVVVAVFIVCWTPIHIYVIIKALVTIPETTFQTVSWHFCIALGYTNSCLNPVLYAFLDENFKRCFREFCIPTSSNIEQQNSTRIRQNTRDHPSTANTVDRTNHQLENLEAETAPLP
Sequence of Insulin-degrading enzyme (P14735 whole entry): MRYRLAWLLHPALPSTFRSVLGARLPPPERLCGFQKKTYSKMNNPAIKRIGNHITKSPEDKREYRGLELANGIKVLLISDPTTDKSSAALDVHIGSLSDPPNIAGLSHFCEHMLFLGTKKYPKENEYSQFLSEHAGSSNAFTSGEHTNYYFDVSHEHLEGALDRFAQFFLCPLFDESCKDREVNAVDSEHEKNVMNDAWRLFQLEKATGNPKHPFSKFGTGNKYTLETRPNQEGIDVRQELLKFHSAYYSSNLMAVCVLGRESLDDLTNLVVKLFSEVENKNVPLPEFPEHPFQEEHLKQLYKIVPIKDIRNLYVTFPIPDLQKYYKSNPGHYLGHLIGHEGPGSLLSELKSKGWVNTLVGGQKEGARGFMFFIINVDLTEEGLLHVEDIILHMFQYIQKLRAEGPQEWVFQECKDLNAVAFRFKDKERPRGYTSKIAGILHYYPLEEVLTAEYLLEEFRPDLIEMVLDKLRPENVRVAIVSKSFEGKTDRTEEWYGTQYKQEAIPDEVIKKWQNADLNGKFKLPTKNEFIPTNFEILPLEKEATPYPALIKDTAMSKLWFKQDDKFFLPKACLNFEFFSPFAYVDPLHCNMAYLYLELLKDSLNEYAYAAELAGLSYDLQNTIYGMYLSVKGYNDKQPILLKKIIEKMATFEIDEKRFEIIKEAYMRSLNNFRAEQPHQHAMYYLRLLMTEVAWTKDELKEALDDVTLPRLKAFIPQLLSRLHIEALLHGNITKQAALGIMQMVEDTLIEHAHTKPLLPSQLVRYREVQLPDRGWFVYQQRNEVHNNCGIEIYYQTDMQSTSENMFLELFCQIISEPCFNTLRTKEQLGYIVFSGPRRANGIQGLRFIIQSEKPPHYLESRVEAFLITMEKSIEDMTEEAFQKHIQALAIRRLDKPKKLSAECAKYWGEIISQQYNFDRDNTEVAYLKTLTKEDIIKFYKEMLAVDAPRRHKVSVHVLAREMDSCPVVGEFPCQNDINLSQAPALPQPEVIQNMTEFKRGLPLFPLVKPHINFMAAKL
Sequence of Alkaline phosphatase, placental type (P05187 whole entry): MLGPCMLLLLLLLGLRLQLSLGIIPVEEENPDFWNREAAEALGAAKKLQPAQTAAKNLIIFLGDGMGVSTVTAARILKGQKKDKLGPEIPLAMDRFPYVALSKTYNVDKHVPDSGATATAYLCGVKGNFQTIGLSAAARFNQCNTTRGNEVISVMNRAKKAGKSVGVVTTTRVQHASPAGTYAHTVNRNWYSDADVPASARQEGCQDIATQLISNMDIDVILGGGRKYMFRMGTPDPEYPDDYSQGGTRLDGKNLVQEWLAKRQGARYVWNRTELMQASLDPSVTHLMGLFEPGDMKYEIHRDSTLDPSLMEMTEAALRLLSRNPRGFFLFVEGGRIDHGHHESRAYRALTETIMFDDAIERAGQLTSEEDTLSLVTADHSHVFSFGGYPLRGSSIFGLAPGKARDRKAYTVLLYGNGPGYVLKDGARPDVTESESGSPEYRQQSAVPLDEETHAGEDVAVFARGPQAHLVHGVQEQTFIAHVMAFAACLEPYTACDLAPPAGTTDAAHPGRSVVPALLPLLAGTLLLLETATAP
Sequence of Perilipin-1/ABHD5 (Q8WTS1 whole entry, the tested form may be a part): as the sequence (Q8WTS1 whole entry, the tested form may be a part) above
Sequence of Perilipin-1/ABHD5 (O60240 whole entry, the tested form may be a part): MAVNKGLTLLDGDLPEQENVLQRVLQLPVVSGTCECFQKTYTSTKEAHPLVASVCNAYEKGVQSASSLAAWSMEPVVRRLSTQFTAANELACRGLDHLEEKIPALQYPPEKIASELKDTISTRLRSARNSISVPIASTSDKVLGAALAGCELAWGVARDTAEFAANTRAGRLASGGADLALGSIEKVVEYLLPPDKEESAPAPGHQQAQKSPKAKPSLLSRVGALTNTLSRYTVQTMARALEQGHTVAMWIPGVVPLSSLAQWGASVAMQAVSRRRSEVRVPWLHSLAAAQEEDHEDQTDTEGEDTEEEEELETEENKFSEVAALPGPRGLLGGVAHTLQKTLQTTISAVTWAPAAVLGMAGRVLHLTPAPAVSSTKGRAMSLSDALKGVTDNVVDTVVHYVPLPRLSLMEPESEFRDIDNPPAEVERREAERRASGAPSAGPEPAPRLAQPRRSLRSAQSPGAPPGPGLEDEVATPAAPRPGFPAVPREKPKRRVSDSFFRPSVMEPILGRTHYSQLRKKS
Sequence of Delta-type opioid receptor (P41143 whole entry): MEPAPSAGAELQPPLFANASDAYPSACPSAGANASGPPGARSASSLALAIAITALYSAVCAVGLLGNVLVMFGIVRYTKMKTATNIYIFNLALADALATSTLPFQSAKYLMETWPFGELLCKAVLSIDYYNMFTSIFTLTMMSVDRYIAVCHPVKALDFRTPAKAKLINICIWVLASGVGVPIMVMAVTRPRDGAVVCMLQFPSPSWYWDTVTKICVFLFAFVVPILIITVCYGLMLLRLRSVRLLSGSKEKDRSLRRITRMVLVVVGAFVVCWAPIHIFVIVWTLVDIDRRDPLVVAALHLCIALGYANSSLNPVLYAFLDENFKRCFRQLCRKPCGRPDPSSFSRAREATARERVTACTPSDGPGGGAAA

For orientation: IC50 means the point on the concentration scale where inhibition reaches its midpoint. As for `COc1ccc(-c2nnc(SCC(=O)Nc3cc(C)on3)n2N)cc1OC`, the IC50 in experiment [1] was > 50 µM (inactive).

The EC50 is the concentration that produces a half-maximal response. In the case of `O=C(NC1(C(F)(F)F)Oc2ccccc2O1)N1CCCC1`, the EC50 in experiment [2] is 15.4 µM (active); in experiment [4], 18 µM (active). The IC50 was 80.9 µM (active) in experiment [3] and > 100 µM (inactive) in experiment [5].

With `Cc1ccc(S(=O)(=O)NCc2ccc(C(=O)NCCN3Cc4ccccc4C3)cc2)cc1`, the IC50 in experiment [6] is > 20 µM (inactive); in experiment [7] it was > 32 µM (inactive); in [8], > 32 µM (inactive); in [9], > 32 µM (inactive).

`CS(=O)(=O)Oc1ccc2c(c1)O/C(=C\C=C\c1ccccc1)C2=O`: the IC50 in [10] was > 55.9 µM (not active); in [11] it was 11 µM (inactive); in experiment [12], 17.6 µM (inactive); in [13], 19.4 µM (not active). Besides, the concentration for a half-maximal effect (EC50) is 3.83 µM (active) in [14] and 5.46 µM (active) in experiment [15].
